In brackets after ≈: the same amount, converted by molar mass.
Tests used:
B. cepacia ATCC 25416 = experiment: Antibacterial activity: MIC/MBC, disc-diffusion; type: cell-based, Burkholderia cepacia; settings: Burkholderia cepacia, ATCC25416; B. cepacia ATCC 25416; read-out: MIC
In short: (§1)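 Read-outs are disc-diffusion zones, broth-microdilution MICs and bactericidal concentrations (MBC), following EUCAST and CLSI guidance. The efflux contribution was probed by rerunning MICs with 20 μg mL^−1 PAβN in MgSO4-supplemented (1 mM) Mueller–Hinton II broth, a ≥4-fold decrease being significant.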

E. faecium ATCC 6057 = experiment: Antibacterial activity: MIC/MBC determination and disc-diffusion; type: cell-based; settings: Enterococcus faecium, ATCC6057; E. faecium ATCC 6057; read-out: MIC
In short: (§2)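 Method: disc diffusion + MIC per EUCAST/CLSI; MBC/MFC per CLSI. Bacteria passaged twice on TSA, yeasts on Sabouraud agar, 24–48 h at 30 °C. Test compounds in DMSO.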

[1] = test system: S. aureus ATCC 43300 MRSA; experiment: as above; type: cell-based; settings: Staphylococcus aureus, S. aureus ATCC 43300 MRSA; for MBC: read-out: MBC (first MBC where Eagle effect); for MIC: read-out: MIC
In short: as §2

E. coli ATCC 25922 = experiment: Antibacterial activity: MIC/MBC, MIC with PAβN, disc-diffusion; type: cell-based, Escherichia coli; settings: E. coli ATCC 25922; for MIC: Escherichia coli, ATCC25922, read-out: MIC; for -fold reduction of MIC in the presence of PAβN: PAβN 20 μg mL^−1, MHB + 1 mM MgSO4
In short: as §1

[2] = test system: B. bronchiseptica ATCC 4617; experiment: Antibacterial activity: MIC/MBC, disc-diffusion; type: cell-based, Bordetella bronchiseptica; settings: Bordetella bronchiseptica, ATCC4617; B. bronchiseptica ATCC 4617; read-out: MIC
In short: as §1

[3] = test system: S. maltophilia ATCC 12714; experiment: Antibacterial activity: MIC/MBC, MIC with PAβN, disc-diffusion; type: cell-based, Stenotrophomonas maltophilia; settings: Stenotrophomonas maltophilia, ATCC12714; S. maltophilia ATCC 12714; read-out: MIC
In short: as §1

[4] = test system: S. maltophilia ATCC 13637; experiment: as above; type: cell-based, Stenotrophomonas maltophilia; settings: Stenotrophomonas maltophilia, ATCC13637; S. maltophilia ATCC 13637; read-out: MIC
In short: as §1

C. krusei ATCC 6258 = experiment: Antifungal activity: MIC/MFC, disc-diffusion; type: cell-based; settings: for diameter of inhibition zone: C. krusei ATCC 6258, (-) = zone not observed, paper discs 9 mm; for MIC: Pichia kudriavzevii, ATCC6258, read-out: MIC
In short: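 Compounds in DMSO were tested by disc diffusion and MIC determination following EUCAST/CLSI guidance, with fungicidal concentration (MFC) per CLSI. Strain first grown twice-checked on Sabouraud dextrose agar, 30 °C, 24–48 h.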

E. cloacae DSM 6234 = experiment: Antibacterial activity: MIC/MBC, MIC with PAβN, disc-diffusion; type: cell-based, Enterobacter cloacae; settings: E. cloacae DSM 6234; for MIC: Enterobacter cloacae, DSM6234, read-out: MIC
In short: as §1

S. cerevisiae ATCC 9763 = experiment: Antifungal activity: MIC/MFC, disc-diffusion; type: cell-based, Saccharomyces cerevisiae; settings: for diameter of inhibition zone / MFC: S. cerevisiae ATCC 9763; for diameter of inhibition zone: (-) = zone not observed, paper discs 9 mm; for MFC / MIC: Saccharomyces cerevisiae, ATCC9763; for MIC: read-out: MIC
In short: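 EUCAST/CLSI MIC plus disc-diffusion; MBC, MFC by CLSI. Pre-culture: two passages, 30 °C, 24–48 h (TSA, Sabouraud). Controls fluconazole (fungi) and linezolid (Gram-positives); DMSO vehicle.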

Row | SMILES | MIC (B. cepacia ATCC 25416) | MIC (E. faecium ATCC 6057) | MBC [1] | MIC [1] | MIC (E. coli ATCC 25922) | MIC [2] | MIC [3] | MIC [4] | diameter of inhibition zone (C. krusei ATCC 6258) | MIC (C. krusei ATCC 6258) | MIC (E. cloacae DSM 6234) | diameter of inhibition zone (S. cerevisiae ATCC 9763) | MFC (S. cerevisiae ATCC 9763) | MIC (S. cerevisiae ATCC 9763) | -fold reduction of MIC in the presence of PAβN (E. coli ATCC 25922) | -fold reduction of MIC in the presence of PAβN (E. cloacae DSM 6234; PAβN 20 μg mL^−1, MHB + 1 mM MgSO4) | diameter of inhibition zone (E. coli ATCC 25922; (-) = zone not observed, paper discs 9 mm)
1 | C[Si]1(C)OB(O)c2cc(F)c(SC3CC(=O)N(c4ccc(Br)c(C(F)(F)F)c4)C3=O)c(F)c21 (stereo not shown) [Compound 16, 1-(4-Bromo-3-(trifluoromethyl)phenyl)-3-((5,7-difluoro-3-hydroxy-1,1-dimethyl-1,3-dihydrobenzo[c][1,2,5]oxasilaborol-6-yl)thio)pyrrolidine-2,5-dione] | > 200 µg/mL | 50 µg/mL (≈ 88.3 µM) | 100 µg/mL (≈ 177 µM) | 50 µg/mL (≈ 88.3 µM) | > 200 µg/mL | 200 µg/mL (≈ 353 µM) | > 200 µg/mL | > 200 µg/mL | 21 mm | 25 µg/mL (≈ 44.2 µM) | > 200 µg/mL | 35 mm | 50 µg/mL (≈ 88.3 µM) | 6.25 µg/mL (≈ 11 µM) | – | – | –
2 | C[Si]1(C)OB(O)c2ccc(SC3CC(=O)N(c4ccc(Br)c(C(F)(F)F)c4)C3=O)c(F)c21 (stereo not shown) [Compound 17, 1-(4-Bromo-3-(trifluoromethyl)phenyl)-3-((7-fluoro-3-hydroxy-1,1-dimethyl-1,3-dihydrobenzo[c][1,2,5]oxasilaborol-6-yl)thio)pyrrolidine-2,5-dione] | > 200 µg/mL | 25 µg/mL (≈ 45.6 µM) | 100 µg/mL (≈ 182 µM) | 25 µg/mL (≈ 45.6 µM) | > 200 µg/mL | 200 µg/mL (≈ 365 µM) | > 200 µg/mL | > 200 µg/mL | 18 mm | 100 µg/mL (≈ 182 µM) | > 200 µg/mL | 33 mm | 100 µg/mL (≈ 182 µM) | 6.25 µg/mL (≈ 11.4 µM) | – | – | –
3 | C[Si]1(C)OB(O)c2cc(F)c(SCCC(=O)OCCCCCC[n+]3ccccc3)c(F)c21 [Compound 18, 1-(6-((3-((5,7-difluoro-3-hydroxy-1,1-dimethyl-1,3-dihydrobenzo[c][1,2,5]oxasilaborol-6-yl)thio)propanoyl)oxy)hexyl)pyridin-1-ium trifluoromethanesulfonate] | > 400 µg/mL | 100 µg/mL | 200 µg/mL | 50 µg/mL | > 400 µg/mL | > 400 µg/mL | > 400 µg/mL | > 400 µg/mL | – | > 400 µg/mL | > 400 µg/mL | – | – | > 400 µg/mL | – | – | –
4 | C[Si]1(C)OB(O)c2ccc(SCCC(=O)OCCCCCC[n+]3ccccc3)c(F)c21 [Compound 19, 1-(6-((3-((7-Fluoro-3-hydroxy-1,1-dimethyl-1,3-dihydrobenzo[c][1,2,5]oxasilaborol-6-yl)thio)propanoyl)oxy)hexyl)pyridin-1-ium trifluoromethanesulfonate] | > 400 µg/mL | 100 µg/mL | 100 µg/mL | 25 µg/mL | > 400 µg/mL | > 400 µg/mL | > 400 µg/mL | > 400 µg/mL | – | > 400 µg/mL | > 400 µg/mL | – | – | > 400 µg/mL | – | – | –
5 | C[Si]1(C)OB(O)c2cc(F)c(SCCS(=O)(=O)c3ccccc3)c(F)c21 [Compound 20, 5,7-Difluoro-1,1-dimethyl-6-((2-(phenylsulfonyl)ethyl)thio)benzo[c][1,2,5]oxasilaborol-3(1H)-ol] | > 400 µg/mL | 100 µg/mL (≈ 241 µM) | 200 µg/mL (≈ 483 µM) | 6.25 µg/mL (≈ 15.1 µM) | > 400 µg/mL | > 400 µg/mL | > 400 µg/mL | > 400 µg/mL | – | > 400 µg/mL | > 400 µg/mL | 16 mm | – | 400 µg/mL (≈ 965 µM) | 32 -fold | 4 -fold | –
6 | C[Si]1(C)OB(O)c2ccc(SCCS(=O)(=O)c3ccccc3)c(F)c21 [Compound 21, 7-Fluoro-1,1-dimethyl-6-((2-(phenylsulfonyl)ethyl)thio)benzo[c][1,2,5]oxasilaborol-3(1H)-ol] | > 400 µg/mL | 200 µg/mL (≈ 505 µM) | 400 µg/mL (≈ 1010 µM) | 12.5 µg/mL (≈ 31.5 µM) | > 400 µg/mL | > 400 µg/mL | > 400 µg/mL | > 400 µg/mL | – | > 400 µg/mL | > 400 µg/mL | 30 mm | 100 µg/mL (≈ 252 µM) | 6.25 µg/mL (≈ 15.8 µM) | 16 -fold | – | 11 mm

Reference: PMC11110727, “Exploiting thiol-functionalized benzosiloxaboroles for achieving diverse substitution patterns – synthesis, characterization and biological evaluation of promising antibacterial agents” (RSC Medicinal Chemistry, 2024)
